Experimental data as given in PMC4975955 (Journal of molecular biology, 2016).

Columns and labels:
[1] = biological target: TmRibU (Thermotoga maritima, UniProt Q9X1G6, N123A); assay: thermal melting by analytical SEC peak height; format: binding; settings: NG detergent; difference of mutant to wild-type complex, no apo reference
[2] = biological target: TmRibUΔCt (Thermotoga maritima, UniProt Q9X1G6); assay: X-ray crystallography, […] Å; format: binding; settings: co-purified substrate; extracellular pocket of TM4-6 and Loop1-2
Chain of TmRibUΔCt (Q9X1G6 1-173, stated change not applied): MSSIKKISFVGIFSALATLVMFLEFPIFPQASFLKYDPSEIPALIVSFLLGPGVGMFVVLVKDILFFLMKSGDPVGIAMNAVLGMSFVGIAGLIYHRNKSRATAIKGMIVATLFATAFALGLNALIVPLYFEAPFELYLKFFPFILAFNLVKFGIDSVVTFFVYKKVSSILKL

Chain of TmRibU (Q9X1G6 whole entry N123A): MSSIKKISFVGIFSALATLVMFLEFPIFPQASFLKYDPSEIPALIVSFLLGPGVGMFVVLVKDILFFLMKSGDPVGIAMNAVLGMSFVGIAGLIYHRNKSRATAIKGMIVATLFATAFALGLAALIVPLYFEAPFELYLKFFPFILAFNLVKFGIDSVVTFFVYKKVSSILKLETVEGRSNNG

- decrease of Tm of riboflavin complex vs WT [1]: ~ 23 °C
SMILES: Cc1cc2nc3c(=O)[nH]c(=O)nc-3n(C[C@H](O)[C@H](O)[C@H](O)CO)c2cc1C [riboflavin]
- X-ray crystallography, 2.6 Å (also 3.2 and 3.4 Å) [2]: we determined the crystal structure of riboflavin-bound TmRibU
